#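 Growth conditions: 96-well plates. Treatment: test compound, 48 hours, 5 concentrations. Analysis: linear interpolation between bracketing concentrations; unreached endpoints set to highest concentration. Definition used: TGI = concentration required for complete inhibition of growth.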
# Columns and labels:
# Experiment in all cases: NCI-60 cell line screen, 48 h
# SW-620 colon = tested on: SW-620 colon
# ACHN renal = tested on: ACHN renal
# EKVX NSCLC = tested on: EKVX NSCLC
# OVCAR-8 ovarian = tested on: OVCAR-8 ovarian
# NCI-H226 lung = tested on: NCI-H226 lung
# HOP-92 NSCLC = tested on: HOP-92 NSCLC
# NCI-H522 lung = tested on: NCI-H522 lung
# MDA-N = tested on: MDA-N
# MOLT-4 leukemia = tested on: MOLT-4 leukemia
# UACC-62 melanoma = tested on: UACC-62 melanoma
# BT-549 breast = tested on: BT-549 breast
# A498 renal = tested on: A498 renal
# SNB-75 CNS = tested on: SNB-75 CNS
# HCT-15 colon = tested on: HCT-15 colon
# KM12 colon = tested on: KM12 colon
# CCRF-CEM leukemia = tested on: CCRF-CEM leukemia
# A549 NSCLC = tested on: A549 NSCLC
# SK-OV-3 ovarian = tested on: SK-OV-3 ovarian
# SNB-19 CNS = tested on: SNB-19 CNS
# SF-295 CNS = tested on: SF-295 CNS
# T-47D breast = tested on: T-47D breast
# PC-3 prostate = tested on: PC-3 prostate
# OVCAR-4 ovarian = tested on: OVCAR-4 ovarian
# CAKI-1 renal = tested on: CAKI-1 renal
# OVCAR-5 ovarian = tested on: OVCAR-5 ovarian
# U251 CNS = tested on: U251 CNS
# SK-MEL-2 melanoma = tested on: SK-MEL-2 melanoma
# NCI-H23 lung = tested on: NCI-H23 lung
# COLO 205 colon = tested on: COLO 205 colon
# OVCAR-3 ovarian = tested on: OVCAR-3 ovarian
# SF-268 CNS = tested on: SF-268 CNS
# RPMI-8226 leukemia = tested on: RPMI-8226 leukemia
# MDA-MB-231 breast = tested on: MDA-MB-231 breast
# HOP-62 NSCLC = tested on: HOP-62 NSCLC
# HT29 colon = tested on: HT29 colon
# LOX IMVI melanoma = tested on: LOX IMVI melanoma
# HCT-116 colon = tested on: HCT-116 colon
# M14 melanoma = tested on: M14 melanoma
# SK-MEL-5 melanoma = tested on: SK-MEL-5 melanoma
# MALME-3M melanoma = tested on: MALME-3M melanoma
# NCI/ADR-RES ovarian = tested on: NCI/ADR-RES ovarian
# UO-31 renal = tested on: UO-31 renal
# NCI-H460 lung = tested on: NCI-H460 lung
# SF-539 CNS = tested on: SF-539 CNS
# UACC-257 melanoma = tested on: UACC-257 melanoma
# DU-145 prostate = tested on: DU-145 prostate
# K-562 leukemia = tested on: K-562 leukemia
# MDA-MB-435 = tested on: MDA-MB-435
# SN12C renal = tested on: SN12C renal
# HL-60(TB) leukemia = tested on: HL-60(TB) leukemia
# TK-10 renal = tested on: TK-10 renal
# SK-MEL-28 melanoma = tested on: SK-MEL-28 melanoma
# 786-0 renal = tested on: 786-0 renal
# RXF 393 renal = tested on: RXF 393 renal
# IGROV1 ovarian = tested on: IGROV1 ovarian
# SR leukemia = tested on: SR leukemia
# HCC-2998 colon = tested on: HCC-2998 colon
# MCF7 breast = tested on: MCF7 breast
compound,measurement,setting,value
Cc1cc(-c2c(Br)cc(C(=O)O)n2C)on1,TGI,SW-620 colon,> 100 µM
same,TGI,ACHN renal,> 100 µM
same,TGI,EKVX NSCLC,> 100 µM
same,TGI,OVCAR-8 ovarian,> 100 µM
same,TGI,NCI-H226 lung,> 100 µM
same,TGI,HOP-92 NSCLC,> 100 µM
same,TGI,NCI-H522 lung,> 100 µM
same,TGI,MDA-N,> 100 µM
same,TGI,MOLT-4 leukemia,> 100 µM
same,TGI,UACC-62 melanoma,> 100 µM
same,TGI,BT-549 breast,> 100 µM
same,TGI,A498 renal,> 100 µM
same,TGI,SNB-75 CNS,> 100 µM
same,TGI,HCT-15 colon,> 100 µM
same,TGI,KM12 colon,> 100 µM
same,TGI,CCRF-CEM leukemia,> 100 µM
same,TGI,A549 NSCLC,> 100 µM
same,TGI,SK-OV-3 ovarian,> 100 µM
same,TGI,SNB-19 CNS,> 100 µM
same,TGI,SF-295 CNS,> 100 µM
same,TGI,T-47D breast,> 100 µM
same,TGI,PC-3 prostate,> 100 µM
same,TGI,OVCAR-4 ovarian,> 100 µM
same,TGI,CAKI-1 renal,> 100 µM
same,TGI,OVCAR-5 ovarian,> 100 µM
same,TGI,U251 CNS,> 100 µM
same,TGI,SK-MEL-2 melanoma,> 100 µM
same,TGI,NCI-H23 lung,> 100 µM
same,TGI,COLO 205 colon,> 100 µM
same,TGI,OVCAR-3 ovarian,> 100 µM
same,TGI,SF-268 CNS,> 100 µM
same,TGI,RPMI-8226 leukemia,> 100 µM
same,TGI,MDA-MB-231 breast,> 100 µM
same,TGI,HOP-62 NSCLC,> 100 µM
same,TGI,HT29 colon,> 100 µM
same,TGI,LOX IMVI melanoma,> 100 µM
same,TGI,HCT-116 colon,> 100 µM
same,TGI,M14 melanoma,> 100 µM
same,TGI,SK-MEL-5 melanoma,> 100 µM
same,TGI,MALME-3M melanoma,> 100 µM
same,TGI,NCI/ADR-RES ovarian,> 100 µM
same,TGI,UO-31 renal,> 100 µM
same,TGI,NCI-H460 lung,> 100 µM
same,TGI,SF-539 CNS,> 100 µM
same,TGI,UACC-257 melanoma,> 100 µM
same,TGI,DU-145 prostate,> 100 µM
same,TGI,K-562 leukemia,> 100 µM
same,TGI,MDA-MB-435,> 100 µM
same,TGI,SN12C renal,> 100 µM
same,TGI,HL-60(TB) leukemia,> 100 µM
same,TGI,TK-10 renal,> 100 µM
same,TGI,SK-MEL-28 melanoma,> 100 µM
same,TGI,786-0 renal,> 100 µM
O=c1c2ccccc2n2c(=S)[nH]nc2n1-c1ccccc1,TGI,SW-620 colon,> 100 µM
same,TGI,ACHN renal,> 100 µM
same,TGI,RXF 393 renal,> 100 µM
same,TGI,EKVX NSCLC,> 100 µM
same,TGI,IGROV1 ovarian,> 100 µM
same,TGI,OVCAR-8 ovarian,> 100 µM
same,TGI,NCI-H226 lung,> 100 µM
same,TGI,NCI-H522 lung,> 100 µM
same,TGI,MDA-N,> 100 µM
same,TGI,MOLT-4 leukemia,> 100 µM
same,TGI,UACC-62 melanoma,> 100 µM
same,TGI,A498 renal,> 100 µM
same,TGI,SNB-75 CNS,84 µM
same,TGI,HCT-15 colon,> 100 µM
same,TGI,KM12 colon,> 100 µM
same,TGI,CCRF-CEM leukemia,> 100 µM
same,TGI,A549 NSCLC,> 100 µM
same,TGI,SK-OV-3 ovarian,> 100 µM
same,TGI,SNB-19 CNS,> 100 µM
same,TGI,SF-295 CNS,> 100 µM
same,TGI,T-47D breast,> 100 µM
same,TGI,PC-3 prostate,> 100 µM
same,TGI,OVCAR-4 ovarian,> 100 µM
same,TGI,CAKI-1 renal,> 100 µM
same,TGI,OVCAR-5 ovarian,> 100 µM
same,TGI,U251 CNS,> 100 µM
same,TGI,SK-MEL-2 melanoma,> 100 µM
same,TGI,NCI-H23 lung,> 100 µM
same,TGI,SR leukemia,> 100 µM
same,TGI,COLO 205 colon,> 100 µM
same,TGI,HCC-2998 colon,> 100 µM
same,TGI,OVCAR-3 ovarian,> 100 µM
same,TGI,MCF7 breast,> 100 µM
same,TGI,SF-268 CNS,> 100 µM
same,TGI,MDA-MB-231 breast,> 100 µM
same,TGI,HOP-62 NSCLC,> 100 µM
same,TGI,HT29 colon,> 100 µM
same,TGI,LOX IMVI melanoma,> 100 µM
same,TGI,HCT-116 colon,> 100 µM
same,TGI,M14 melanoma,> 100 µM
same,TGI,SK-MEL-5 melanoma,> 100 µM
same,TGI,MALME-3M melanoma,> 100 µM
same,TGI,NCI/ADR-RES ovarian,> 100 µM
same,TGI,UO-31 renal,> 100 µM
same,TGI,NCI-H460 lung,> 100 µM
same,TGI,SF-539 CNS,> 100 µM
same,TGI,UACC-257 melanoma,> 100 µM
same,TGI,DU-145 prostate,> 100 µM
same,TGI,K-562 leukemia,> 100 µM
same,TGI,MDA-MB-435,> 100 µM
same,TGI,SN12C renal,> 100 µM
same,TGI,HL-60(TB) leukemia,> 100 µM
same,TGI,TK-10 renal,> 100 µM
same,TGI,SK-MEL-28 melanoma,> 100 µM
same,TGI,786-0 renal,> 100 µM

# Source: PubChem BioAssay (NCI)
